The values that follow come from ChEMBL document CHEMBL3272164, “Compounds with gastric antisecretory activity. 1. Phenoxyalkylamines” (J Med Chem, 1977).

In one data set the test system is Rattus norvegicus. Put plainly: Inhibition of histamine-induced gastric acid secretion in rat in perfused stomach preparation at 1.25 mg/kg, iv after 15 mins. The data set is classed as functional. Particulars: 0.25 h.
For the compound `c1ccc(OCCN2CCCC2)c(CCC23CC4CC(CC(C4)C2)C3)c1`, the inhibition in vivo (in general, how much of the control response was suppressed) at 1.25 mg/kg is 100%.
Regarding `CCN(CC)CCOc1ccccc1/C=C/C1CCCCC1`, testing at 1.25 mg/kg gave an inhibition in vivo of 82%.
Still for that read-out and setting: the figure for `C(=C\C1CCCCC1)/c1ccccc1OCCN1CCCC1` is 90%.

A further data set concerns Rattus norvegicus. Briefly: Toxicity in rat at 5 mg/kg, iv. The data set is classed as organism-based. Details: dose 5 mg/kg, route intravenous. To be noted: in vivo.
For `CCCCCCCc1ccccc1OCCCNC(C)C.O=C(O)C(=O)O`, the Activity result is recorded as “Toxic”.
On the same count and under the same terms, the entry for `CCCCCCCc1ccccc1OCCNCC.O=C(O)C(=O)O` is “Toxic”.

The next data set deals with Rattus norvegicus. Put plainly: Inhibition of histamine-induced gastric acid secretion in rat in perfused stomach preparation at 5 mg/kg, iv after 15 mins. The data set is classed as functional. To be noted: 0.25 h.
As to `CCN(CC)CCOc1ccccc1CCCC(C)(C)C`, the inhibition in vivo at 5 mg/kg came out at 50%.
For the compound `CCCCCCCc1cc(C)ccc1OCCN(CC)CC`, the inhibition in vivo at 5 mg/kg was 61%.
Compound `c1ccc(OCCN2CCOCC2)c(CCC2CCCCC2)c1` returned an inhibition in vivo at 5 mg/kg of 10%.
As to `c1ccc(N2CCN(CCOc3ccccc3CCC3CCCCC3)CC2)cc1`, testing at 5 mg/kg gave an inhibition in vivo of 0%.
For `CN1CCN(CCOc2ccccc2CCC2CCCCC2)CC1`, 5 mg/kg produced 0% inhibition in vivo.
The same measure, in the same setting: as for `CCN(CC)CCOc1ccccc1CCC1CCCCC1`, the figure is 74%.
Still for that read-out and setting: as for `CCN(CC)CCOc1ccc(Cl)cc1CCC1CCCCC1`, the figure is 75%; as for `CN1CCCCC1COc1ccccc1CCC1CCCCC1` (centres undefined), 100%.
`CCCN(CCC)CCOc1ccccc1CCC1CCCCC1` came in with an inhibition in vivo at 5 mg/kg of 62%.
In turn, `CCN(CC)CCOc1ccc(OC)cc1CCC1CCCCC1` yielded an inhibition in vivo at 5 mg/kg of 78%.
Still for that read-out and setting: the figure for `CC(C)N(CCOc1ccccc1CCC1CCCCC1)C(C)C` is 32%.
In turn, `CCN1CCCC(COc2ccccc2CCC2CCCCC2)C1` (centres undefined) had an inhibition in vivo at 5 mg/kg of 57%.
On the same count and under the same terms, the figure for `CC(C)CN1CCN(CCOc2ccccc2CCC2CCCCC2)CC1` is 51%; for `CCCCCC/C=C/c1ccccc1OCCN1CCCC1` it is 50%; for `CCN(CC)CCCOc1ccccc1CCC1CCCCC1` it is 66%.
On the same count and under the same terms, the figure for `CCCCC/C=C/c1ccccc1OCCN1CCCC1` is 71%.
Same read-out and setting: as for `CN(C)CCOc1ccccc1CCC1CCCCC1`, the figure is 29%; as for `CCN(CC)CCOc1ccc(F)cc1CCC1CCCCC1`, 95%; as for `CCCCCCc1ccccc1OCCN(CC)CC`, 48%.
For `CN(C)CCCOc1ccccc1CCC1CCCCC1`, the inhibition in vivo at 5 mg/kg was determined as 42%.
On the same count and under the same terms, as for `CCCCCCCc1ccccc1OCCN(CC)CC`, the figure is 82%; as for `CCCCCCCCCc1ccccc1OCCN(CC)CC`, 25%.
On the same count and under the same terms, the figure for `c1ccc(OCCN2CCCC2)c(CCC2CCCCC2)c1` is 95%; for `CCN(CC)CCOc1ccc(C(C)=O)cc1CCC1CCCCC1` it is 36%.

Another data set relates to Rattus norvegicus. Put plainly: Inhibition of histamine-induced gastric acid secretion in po dosed rat in ligated stomach preparation administered 1 hr prior to the ligation of the pylorus.
Conditions: not given
The data set is classed as functional.
For `CN/C(=N\CCSCc1nc[nH]c1C)NC#N` [CIMETIDINE], the 50% effect level (ED50) was put at a dose of 21.5 mg/kg.
Same read-out and setting: the figure for `C(=C\C12CC3CC(CC(C3)C1)C2)/c1ccccc1OCCN1CCCC1.Cl` is 1.5 mg/kg.

The test system of another data set is Rattus norvegicus. Put plainly: Inhibition of histamine-induced gastric acid secretion in rat in perfused stomach preparation at 2.5 mg/kg, iv after 15 mins. The data set is classed as functional. To be noted: 0.25 h.
For `CN1CCCCC1COc1ccccc1CCC1CCCCC1` (centres undefined), the inhibition in vivo at 2.5 mg/kg is 64%.
The same measure, in the same setting: as for `c1ccc(OCCN2CCCCC2)c(CCC2CCCCC2)c1`, the figure is 50%.

For a further data set, the system named is Rattus norvegicus. Briefly: Inhibition of histamine-induced gastric acid secretion in iv dosed rat in perfused stomach preparation measured after 15 mins. The data set is classed as functional. To be noted: 0.25 h.
For `CN/C(=N\CCSCc1nc[nH]c1C)NC#N` [CIMETIDINE], the ED50 (usually the midpoint of the dose-response relation) was determined as 0.3 mg/kg.
Same read-out and setting: as for `C(=C\C12CC3CC(CC(C3)C1)C2)/c1ccccc1OCCN1CCCC1.Cl`, the figure is 0.018 mg/kg.

The test system of the next data set is Rattus norvegicus. Briefly: Inhibition of histamine-induced gastric acid secretion in rat in perfused stomach preparation at 0.078 mg/kg, iv after 15 mins. The data set is classed as functional. Particulars: 0.25 h.
`c1ccc(OCCN2CCCC2)c(CCC23CC4CC(CC(C4)C2)C3)c1` registered an inhibition in vivo at 0.078 mg/kg of 83%.
`C(=C\C12CC3CC(CC(C3)C1)C2)/c1ccccc1OCCN1CCCC1.Cl` registered an inhibition in vivo at 0.078 mg/kg of 97%.
Still for that read-out and setting: the figure for `C(=C/C12CC3CC(CC(C3)C1)C2)/c1ccccc1OCCN1CCCC1` is 65%.
Same read-out and setting: the figure for `CN(C)CCOc1ccccc1/C=C/C12CC3CC(CC(C3)C1)C2` (trans isomer) is 52%.
